The text below walks through data of BindingDB's records for doi:10.1021/jm00111a037 (University of Tokushima, 1991).

Structures are written as SMILES.

As usually defined, the IC50 is the concentration that inhibits the measured activity by half. Low readings indicate greater potency, high ones weaker potency.

The first assay can be described thus: Inhibition of arachidonate 5-lipoxygenase purified from porcine leukocytes.
For the compound `CCCCCCCCCCCCCCc1c(-c2ccc(O)c(O)c2)oc2c(OC)c(OC)cc(OC)c2c1=O`, the IC50 was 115 nM.

As to `CCCCCCCCCCCCCCc1c(-c2ccc(O)c(O)c2)oc2cc(OC)c(OC)c(=O)c-2c1O`, half-maximal inhibition (IC50) was put at 870 nM.

With `CCCCCCOc1c(OC)c(OC)cc2oc(-c3ccc(O)c(O)c3)c(OC)c(=O)c12`, it took 280 nM to reach half-maximal inhibition (IC50).

`CCCCCCCCCCCCCCCCc1c(-c2ccc(O)c(O)c2)oc2c(OC)c(OC)cc(OC)c2c1=O` gave an IC50 of 500 nM.

The compound `CCCCCCOc1c(OC)c(OC)cc2oc(-c3ccc(O)c(O)c3)c(O)c(=O)c12` showed an IC50 of 1350 nM.

`CCCCCCOc1cc(OC)c(OC)c2oc(-c3ccc(O)c(O)c3)c(O)c(=O)c12` displayed an IC50 of 770 nM.

`CCCCCCCCCCCCCCCCc1c(-c2ccc(O)c(O)c2)oc2cc(OC)c(OC)c(OC)c2c1=O` showed a 50% inhibitory concentration (IC50) of 950 nM.

`COc1cc(O)c2c(=O)c(C)c(-c3ccc(O)c(O)c3)oc2c1OC` displayed an IC50 of 300 nM.

Regarding `CCCCCCCCCCc1c(-c2ccc(O)c(O)c2)oc2c(OC)c(OC)cc(O)c2c1=O`, the IC50 came to 135 nM.

Take `CCCCCCOc1c(-c2ccc(O)c(O)c2)oc2c(OC)c(OC)cc(OC)c2c1=O`: the IC50 is 88 nM.

As to `CCCCCCOc1c(-c2ccc(O)c(O)c2)oc2cc(OC)c(OC)c(OC)c2c1=O`, half-maximal inhibition (IC50) was put at 126 nM.

`CCCCCCc1c(-c2ccc(O)c(O)c2)oc2cc(OC)c(OC)c(=O)c-2c1O` showed an IC50 of 110 nM.

As to `CCCCCCCCCCCCCCCCc1c(-c2ccc(O)c(O)c2)oc2cc(OC)c(OC)c(=O)c-2c1O`, it took 1250 nM to reach half-maximal inhibition (IC50).

`CCCCCCCCCCc1c(-c2ccc(O)c(O)c2)oc2c(OC)c(OC)cc(OC)c2c1=O` registered an IC50 of 86 nM.

In the case of `CCCCc1c(-c2ccc(O)c(O)c2)oc2cc(OC)c(OC)c(=O)c-2c1O`, the midpoint of inhibition, the IC50, lay at 265 nM.

Regarding `CCCCCCCCc1c(-c2ccc(O)c(O)c2)oc2c(OC)c(OC)cc(OC)c2c1=O`, the IC50 was determined as 62 nM.

Compound `CCCCCCCCCCCCCCCCc1c(-c2ccc(O)c(O)c2)oc2c(OC)c(OC)cc(O)c2c1=O` displayed an IC50 of 1500 nM.

`COc1cc2oc(-c3ccc(O)c(O)c3)c(C)c(=O)c2c(O)c1OC`: the IC50 was 480 nM.

Consider `CCCCc1c(-c2ccc(O)c(O)c2)oc2c(OC)c(OC)cc(OC)c2c1=O`, for which the IC50 is 100 nM.

The compound `CCCCCCCCCCCCc1c(-c2ccc(O)c(O)c2)oc2c(OC)c(OC)cc(OC)c2c1=O` came in with an IC50 of 105 nM.

`CCCCCCc1c(-c2ccc(O)c(O)c2)oc2c(OC)c(OC)cc(OC)c2c1=O` came in with an IC50 of 58 nM.

A short description of the next assay: The compound was tested for the inhibition of Arachidonate 5-lipoxygenase purified from porcine leukocytes.
The compound `CCCCCCCCCCCCc1c(-c2ccc(O)c(O)c2)oc2cc(OC)c(OC)c(OC)c2c1=O` gave an IC50 of 175 nM.

`CCCCCCCCCCCCCCc1c(-c2ccc(O)c(O)c2)oc2cc(OC)c(OC)c(OC)c2c1=O` registered an IC50 of 240 nM.

`CCCCCCCCCCCCc1c(-c2ccc(O)c(O)c2)oc2c(OC)c(OC)cc(O)c2c1=O` had a 50% inhibitory concentration (IC50) of 340 nM.

In turn, `CCCCCCCCCCc1c(-c2ccc(O)c(O)c2)oc2cc(OC)c(OC)c(OC)c2c1=O` came in with an IC50 of 190 nM.

In the case of `CCCCCCCCCCCCc1c(-c2ccc(O)c(O)c2)oc2cc(OC)c(OC)c(=O)c-2c1O`, the IC50 worked out at 210 nM.

Turning to `CCCCCCCCc1c(-c2ccc(O)c(O)c2)oc2cc(OC)c(OC)c(OC)c2c1=O`, it took 250 nM to reach half-maximal inhibition (IC50).

Consider `CCCCCCCCCCCCCCc1c(-c2ccc(O)c(O)c2)oc2c(OC)c(OC)cc(O)c2c1=O`, for which the IC50 turned out to be 500 nM.
